Measured values taken from ChEMBL document CHEMBL5661943, “ASAP - In vitro antiviral effect” (2024).
Several values for one entry are separate records, joined by “and”; a condition that tells them apart may be missing. Equal values may be shown once.

Key:
Zika virus [1] = assay: EC50 is reported via analysis of immunofluorescence staining. The assay has been performed by Icahn School of Medicine at Mount Sinai.; format: functional, organism-based, Chlorocebus sabaeus, VeroE6/TMPRSS2; details: for EC90: P-gp concentration 2 uM, P-gp inhibitor Elacidar
dengue virus type 2 [2] = assay: Functional assay to measure dose dependent changes in antiviral-drug inhibitory efficacy against Dengue virus type 2 New Guinea C in Vero E6 miRFP670 cells (cotreated with P-gp inhibitor, CP100356). Cells are treated with antiviral candidates that are serially diluted, following infection, cells are fixed. EC50 is reported via analysis of fluorescence intensity using high-content imager. The …; format: organism-based, Chlorocebus sabaeus, Vero C1008; details: for EC90: P-gp concentration 500 nM, P-gp inhibitor CP100356
Zika virus [3] = assay: Functional CPE-based assay to measure dose dependent changes in antiviral-drug inhibitory efficacy against Zika virus MR766 in Vero E6 miRFP670 cells (cotreated with P-gp inhibitor, CP100356). Cells are treated with antiviral candidates that are serially diluted. EC50 is reported via analysis of MTS assay as a readout of CPE. The assay has been performed by KU Leuven.; format: organism-based, Chlorocebus sabaeus, Vero C1008; details: for EC90: Baseline response 0 %, Maximum response 100 %, P-gp concentration 500 nM, P-gp inhibitor CP100356
dengue virus type 2 [4] = assay: Functional immunofluorescence assay to measure dose dependent changes in antiviral-drug inhibitory efficacy against Dengue virus type 2 Thailand/16681/84 in Vero E6/TMPRSS2 cells (cotreated with P-gp inhibitor, Elacridar). Cells are treated with antiviral candidates that are serially diluted, following infection, cells are fixed. EC50 is reported via analysis of immunofluorescence staining. The assay has been performed by Icahn School of Medicine at Mount Sinai.; format: organism-based, Chlorocebus sabaeus, VeroE6/TMPRSS2; details: Dengue virus; for EC90: P-gp concentration 2 uM, P-gp inhibitor Elacidar

## COCCNC(=O)[C@H](Nc1ccc2c(c1)CNC2)c1cc(Cl)cc(C2CC2)c1
Zika virus [1]; Baseline response 0 %, Hill slope -0.71, Maximum measured 110.043 %, Maximum response 100 %, Minimum measured 53.247 %, R squared 0.662
  EC90: > 5.56 µM
Zika virus [1]; Zika virus, VeroE6/TMPRSS2
  EC50: > 5.56 µM
Zika virus [1]; Zika virus, VeroE6/TMPRSS2, Baseline response 0 %, Hill slope -0.244, Maximum measured 65.627 %, Maximum response 50 %, Minimum measured 21.531 %, R squared 0.09
  EC90: > 5.56 µM
Dengue virus type 2 [2]; Dengue virus, Vero C1008
  EC50: 40.2 µM
Dengue virus type 2 [2]; Dengue virus, Vero C1008, Maximum measured 154.141 %, Minimum measured 87.25 %
  EC90: > 50 µM
Dengue virus type 2 [2]; Dengue virus, Vero C1008, Baseline response 0 %, Hill slope -1.76, Maximum measured 106.994 %, Maximum response 100 %, Minimum measured 48.696 %, R squared 0.783
  EC90: > 50 µM
Dengue virus type 2 [2]; vero c1008
  EC50: > 50 µM
Zika virus [3]; EC90 CI (lower) 3.438 uM, EC90 CI (upper) 13.705 uM, Hill slope 5.727, Maximum measured 103.141 %, Minimum measured 2.231 %, R squared 0.527
  EC90: 6.86 µM
Zika virus [3]; Hill slope 2.264, Maximum measured 83.807 %, Minimum measured -2.671 %, R squared 0.978
  EC90: > 50 µM
Zika virus [3]; vero c1008
  EC50: 26 µM and 4.68 µM

## Nc1cc(Cl)cc(C(=O)Nc2ccc3c(c2)CNC3)c1N
Dengue virus type 2 [2]; Dengue virus, Vero C1008
  EC50: > 50 µM
Dengue virus type 2 [2]; Dengue virus, Vero C1008, Baseline response 0 %, Hill slope 0.309, Maximum measured 103.631 %, Maximum response 100 %, Minimum measured 71.641 %, R squared 0.1
  EC90: > 50 µM
Dengue virus type 2 [4]; VeroE6/TMPRSS2
  EC50: 41.9 µM
Dengue virus type 2 [4]; VeroE6/TMPRSS2, Baseline response 0 %, Hill slope -3.096, Maximum measured 144.717 %, Maximum response 100 %, Minimum measured 36.673 %, R squared 0.131
  EC90: > 50 µM
Zika virus [3]; Zika virus, Vero C1008
  EC50: > 50 µM
Zika virus [3]; Zika virus, Vero C1008, Hill slope 0.699, Maximum measured 36.917 %, Minimum measured 3.264 %, R squared 0.811
  EC90: > 50 µM

## O=C(Nc1ccc2c(c1)CNC2)c1cc(Br)cc2[nH]c([C@H]3CCOC3)nc12
Zika virus [1]; Zika virus, VeroE6/TMPRSS2
  EC50: > 5.56 µM
Zika virus [1]; Zika virus, VeroE6/TMPRSS2, Maximum measured 90.854 %, Minimum measured 45.403 %
  EC90: > 5.56 µM
Dengue virus type 2 [2]; Dengue virus, Vero C1008
  EC50: > 3.12 µM
Dengue virus type 2 [2]; Dengue virus, Vero C1008, Baseline response 0 %, Hill slope -2.03, Maximum measured 96.655 %, Maximum response 100 %, Minimum measured 50.768 %, R squared 0.853
  EC90: > 3.12 µM
Zika virus [3]; Zika virus, Vero C1008
  EC50: 0.918 µM
Zika virus [3]; Zika virus, Vero C1008, Hill slope 2.359, Maximum measured 80.04 %, Minimum measured 15.463 %, R squared 0.714
  EC90: > 1.56 µM

## N#C[C@H](Nc1ccc2c(c1)CNC2)c1cc(Cl)cc(C2CC2)c1
Dengue virus type 2 [2]; Dengue virus, Vero C1008
  EC50: 45.6 µM
Dengue virus type 2 [2]; Dengue virus, Vero C1008, Baseline response 0 %, Hill slope -4.312, Maximum measured 125.602 %, Maximum response 100 %, Minimum measured 40.399 %, R squared 0.668
  EC90: > 50 µM
Dengue virus type 2 [4]; VeroE6/TMPRSS2
  EC50: > 16.7 µM
Dengue virus type 2 [4]; VeroE6/TMPRSS2, Maximum measured 136.887 %, Minimum measured 85.602 %
  EC90: > 16.7 µM
Zika virus [3]; Zika virus, Vero C1008
  EC50: 19.3 µM
Zika virus [3]; Zika virus, Vero C1008, Hill slope 4.333, Maximum measured 75.439 %, Minimum measured -2.703 %, R squared 0.979
  EC90: > 25 µM

## CCc1cc(Cl)cc(C(=O)Nc2ccc3c(c2)CNC3)c1
Dengue virus type 2 [4]; VeroE6/TMPRSS2
  EC50: > 16.7 µM
Dengue virus type 2 [4]; VeroE6/TMPRSS2, Baseline response 0 %, Hill slope -0.226, Maximum measured 109.554 %, Maximum response 100 %, Minimum measured 84.826 %, R squared 0.106
  EC90: > 16.7 µM

## NCc1cccc(NC(=O)C[C@H](NC(=O)OCc2ccccc2)c2ccc(OCc3ccccc3)c(Br)c2)c1
Zika virus [1]; Zika virus, VeroE6/TMPRSS2
  EC50: 1.7 µM
Zika virus [1]; Zika virus, VeroE6/TMPRSS2, Baseline response 0 %, Hill slope -0.518, Maximum measured 120.113 %, Maximum response 100 %, Minimum measured 9.459 %, R squared 0.639
  EC90: > 50 µM
Dengue virus type 2 [4]; VeroE6/TMPRSS2
  EC50: > 16.7 µM
Dengue virus type 2 [4]; VeroE6/TMPRSS2, Baseline response 0 %, Hill slope 0.065, Maximum measured 60.527 %, Maximum response 100 %, Minimum measured 30.522 %, R squared 0.087
  EC90: > 16.7 µM

## O=C(Nc1ccc2c(c1)CNC2)c1cc(Cl)cc2[nH]c(-c3c[nH]c(=O)c(Br)c3)nc12
Dengue virus type 2 [2]; Dengue virus, Vero C1008
  EC50: > 50 µM
Dengue virus type 2 [2]; Dengue virus, Vero C1008, Maximum measured 259.566 %, Minimum measured 84.768 %
  EC90: > 50 µM
Zika virus [3]; Zika virus, Vero C1008
  EC50: > 50 µM
Zika virus [3]; Zika virus, Vero C1008, Hill slope 0.525, Maximum measured 33.05 %, Minimum measured 2.151 %, R squared 0.865
  EC90: > 50 µM
